# “Also recorded” adds a separate entry of the source.
# Legend:
# hPSC-derived NSCs = assay: Ventral regional identity of hPSC-derived NSCs at 9 DDC in dSMADi+SAG conditions (NKX2.1, LMX1A, PHOX2B, NKX2.2); format: cell-based, human; settings: for identity imposed by RA analogue with inhibition of CYP26 activity: 500 nM analogue for 48-hours plus 500 nM R115866, 9 DDC; for identity imposed by RA analogue: 500 nM for 48-hours; for identity imposed by RA analogue / identity of NSCs: dSMADi+SAG; for identity imposed by RA analogue / identity of NSCs / identity of cells after inhibiting CYP26 activity: 9 DDC
# CYP26 = settings: cited from earlier work
# β-catenin = assay: β-CATENIN nuclear levels in cultures at 2 DDC; format: cell-based, human; settings: dSMADi+SAG
# Description: FIG. 2: Specification of NSC with ventral midbrain identity using RA and SHH signaling. (a) Schematic of hPSCs differentiation with timeline of treatment with RA and activator of SHH signaling (SAG) (top). Immunocytochemistry for indicated markers at 9 DDC in cultures differentiated in dSMADi+SAG-condition and pulsed with RA for 1-, 2- or 4-days (bottom). (b) Relative gene expression (FPKM) of indicated genes in 9 DDC cultures differentiated in dSMADi+SAG-conditions and treated with RA for the indicated time. (c) Heatmap and hierarchical clustering of differentially expressed genes of 9 DDC cultures differentiated in dSMADi+SAG-condition and treated with RA for the indicated time. (d) Schematic of gene expression profiles defining distinct ventral progenitors in the diencephalon (Di), midbrain (MB) and hindbrain (HB) positions. (e) Expression of genes associated with the indicated regional progenitors at 14 DDC in cultures differentiated in dSMADi+SAG+RA^2D condition. (f) Immunocytochemistry for β-CATENIN (left) and boxplots of β-CATENIN nuclear levels (right) in cultures at 2 DDC differentiated in dSMADi+SAG-condition (control) and treated with RA or CHIR99021. Boxplot, whiskers define 5th and 95th percentile. Asterisks, Student t test; **p<0.01, ***p<0.001. (g) Immunocytochemistry for the indicated markers in cultures at 14 DDC differentiated in dSMADi+SAG+RA^2D condition. […]
# [1] = system: hPSC-derived vMB progenitors; assay: Neurogenesis and mDA neuron yield in differentiating hPSC cultures (HuCD, TuJ1, TH, GABA immunocytochemistry, electrophysiology); format: cell-based, human; settings: with SAG
# Description: A unique feature of mDA neurons is that they originate from initially non-neuronal floor plate (FP) cells at the ventral midline of the MB, and progenitors must acquire neuronal potential prior to differentiation into neurons^30,44. Few markers distinguish between these states, but downregulation of SHH and upregulation pro-neural bHLH proteins over time correlate with this transition^44. […] In RA^2D+SAG cultures at 21 DDC, ˜30% of DAPI^+ cells accounted for HuCD^+ neurons (FIG. 4d) and many of these had initiated expression of TH (FIG. 4c). When we instead used CHIR99021+SAG to specify LMX1A^+/NKX2.1^− vMB progenitors (FIG. 3b), cells initiated neurogenesis at around 17 DDC (FIG. 4c, d) which is consistent with previous studies^9,13. At 21 DDC, HuCD^+ neurons constituted ˜10% of total cells and few neurons expressed TH (FIG. 4c, d).
# TH^+ neurons acquired a progressively more advanced neuronal morphology with a progressive outgrowth of TH^+ axonal processes in RA^2D+SAG cultures between 30-45 DDC (FIG. 4e, g, h; FIG. 8f (Supplementary FIG. 2f)). TH^+ neurons expressed mDA neuron markers LMX1A, LMX1B, FOXA2, NURR1, and OTX2 at 30-35 DDC (FIG. 4e). […] TH^+ neurons also expressed the mature neuronal marker SYNAPTOPHYSIN and the monoaminergic marker VMAT2 (FIG. 40. A subset of cells expressed GIRK2 or CALBINDIN indicating the presence of both A9- and A10-like subtypes of mDA neurons^45 (FIG. 4f). At 35 DDC, ˜80% of neurons expressed TH^+ which corresponded to ˜65% of total DAPI^+ cells (FIG. 4i, j). ˜10% of neurons expressed GABA (FIG. 4i, j), and some of these co-expressed TH (FIG. 10c (Supplementary FIG. 4c)). Only rare neurons expressing 5-HT or the MN marker PERIPHERIN were detected (FIG. 4i, j). High performance liquid chromatography (HPLC) analyses at 42 DDC established that neurons produced and released dopamine (FIG. 4k, I) but not serotonin (5-HT) or noradrenaline (NA) (FIG. 4k). […] Very few cells expressed Ki67 or phospho-histone H3 at 35-40 DDC indicating low mitotic activity after long-term culturing of cells (FIG. 4i). Functional maturation of mDA neurons in vitro can be monitored by determining the time when hPSC-derived mDA neurons acquire spontaneous action potentials, evoked action potentials and voltage-dependent Na^+ and K^+ currents, and these traits were previously reported to be attained after ˜60 days of culture of FACS-enriched mDA neurons (25+36 days: before/after sorting) using current state-of-the-art protocols^7. […] Neurons showing both spontaneous (FIG. 4m) and evoked action potentials (FIG. 4n) could be recorded at 40 DDC.
# 80-90% confluent PSCs cultures were rinsed twice with PBS, treated with EDTA (0.5 mM in PBS) for 5-7 min, and resuspended into single cell suspension in PBS. Cells were spin down at 400 g and resuspended in N2B27 medium (DMEM/F12: Neurobasal (1:1), 0.5×N2 and 0.5×B27 (plus vitamin A) supplements, 1×nonessential amino acids, 1% GlutaMAX, 55 μM β-mercaptoethanol-all from Thermo Fisher Scientific) containing 5 μM SB431542 (Miltenyi Biotech) and 2.5 μM DMH1 (Santa Cruz Biotech) (dual SMAD inhibition), and 10 μM ROCK inhibitor (for the first 48 hours after seeding). Cells were seeded on VTN (2 μg/cm^2) and Fibronectin (FN) (2 μg/cm^2) (Sigma) coated surface at a density of 60,000-80,000 cells/cm^2 for RA- and RA-analogues based experiments, and 20,000 cells/cm^2 for CHIR99021 experiments. SAG1.3 (Santa Cruz Biotechnology), CHIR99021 (Miltenyi Biotech), all-trans RA, 9-cis RA, 13-cis RA, Tazarotenic acid, R115866 (all Sigma), EC23 (Amsbio) were used at concentrations and time points described in the result section. For mDA neuron differentiation (see schematic drawing FIG. 4) neural progenitors were mechanically dissociated at 9 DDC with Stem Cell Passaging Tool (Thermo Fisher Scientific) and seeded at 1:3 ratio in N2B27 medium containing 10 μM ROCK inhibitor (for first 48 hours after dissociation) on VTN and FN coated surfaces. […]
# [2] = system: hPSC-derived ventral midbrain dopaminergic progenitors; assay: Specification of caudal midbrain identity (EN1 immunocytochemistry); format: cell-based, human; settings: RA^2D+SAG plus 5 μM CHIR99021 between 4-9DDC
# Experimental: (a) (a) Immunocytochemical analysis of ventral MB progenitor identities at 14 DDC. […] Nuclei of cells visualized with DAPI staining. (b) Immunocytochemistry of dopaminergic neuron marker TH and caudal midbrain marker EN1 expression in 40 DDC cultures differentiated in indicated conditions.
# Cells were fixed for 12 min at room temperature (RT) in 4% paraformaldehyde in PBS, rinsed 3 times in PBST (PBS with 0.1% Triton-X100), and blocked for 1 hour at RT with blocking solution (3% FCS/0.1% Triton-X100 in PBS). Cells were then incubated with primary antibodies overnight at 4° C., followed by incubation with fluorophore-conjugated secondary antibodies for 1 hour at RT. Both primary and fluorophore-conjugated secondary antibodies were diluted in blocking solution. Primary antibodies used are listed in Supplementary Table 1. Appropriate Alexa (488, 555, 647)-conjugated secondary antibodies (Molecular Probes) were used.
# Mechanisms underlying specification of midbrain dopamine neuron subtypes remains poorly resolved, but is likely to involve sub-patterning of ventral midbrain dopaminergic progenitors along the mediolateral and rostro-caudal axes of the midbrain (Brignani, S, and Pasterkamp, R. J., Front. Neuroanat. 11, 1-18 (2017)). WNT1 signaling emanating from the isthmic organizer at the midbrain-hindbrain boundary establish polarity of midbrain progenitors along the rostro-caudal axis by inducing a caudal^HIGH-to-rostral^LOW expression gradient of the homeodomain proteins EN1 and EN2 (Wurst, W. and Bally-Cuif, L. Nat. Rev. Neuroscience 2, 99-108 (2001)).
smiles,measurement,setting,value
"CC1=C(/C=C/C(C)=C\C=C\C(C)=C\C(=O)O)C(C)(C)CCC1 [9-cis RA, 9-cis-Retinoic acid]",identity imposed by RA analogue with inhibition of CYP26 activity,hPSC-derived NSCs,shift into a PHOX2B^+ HB identity
same,identity imposed by RA analogue,hPSC-derived NSCs,LMX1A^+/NKX2.1^− vMB identity; also recorded: LMX1A+/NKX2.1− vMB identity
same,susceptibility to CYP26-mediated oxidation,CYP26,substrates for CYP26-mediated oxidation
"CC1=C(/C=C/C(C)=C/C=C/C(C)=C\C(=O)O)C(C)(C)CCC1 [13-cis RA, 13-cis-Retinoic acid]",identity imposed by RA analogue with inhibition of CYP26 activity,hPSC-derived NSCs,shift into a PHOX2B^+ HB identity
same,identity imposed by RA analogue,hPSC-derived NSCs,LMX1A^+/NKX2.1^− vMB identity; also recorded: LMX1A+/NKX2.1− vMB identity
same,susceptibility to CYP26-mediated oxidation,CYP26,substrates for CYP26-mediated oxidation
Cc1c[nH]c(-c2cnc(NCCNc3ccc(C#N)cn3)nc2-c2ccc(Cl)cc2Cl)n1 [CHIR99021],identity of NSCs,hPSC-derived NSCs; 1 μM,LMX1A^+/NKX2.1^− identity
same,identity of NSCs,hPSC-derived NSCs; 0.8 and 0.6 μM,diencephalic LMX1A^+/NKX2.1^+ character
same,identity of NSCs,hPSC-derived NSCs; 1.2 and 1.4 μM,NKX2.2^+/LMX1A^− presumptive HB identity
same,β-catenin in nuclei,β-catenin,translocation of β-catenin into nuclei
same,HuCD+ neurons as share of total DAPI+ cells,[1]; 21 DDC,~10%
same,time of initiation of neurogenesis (first neurons),[1],around 17 DDC
same,identity of ventral midbrain progenitors (EN1),[2]; 14DDC,a majority of LMX1A^+/OTX2^+ cells also expressed EN1
same,EN1 expression in TH+ dopamine neurons,[2]; 40DDC,a large fraction of TH^+ dopamine neurons expressed EN1
CC1(C)CCC(C)(C)c2cc(C#Cc3ccc(C(=O)O)cc3)ccc21 [EC23],identity imposed by EC23,"hPSC-derived NSCs; 200 nM EC23, EC23^1D+SAG or EC23^2D+SAG, with or without inhibition of CYP26",PHOX2B^+ HB-identity; also recorded: hindbrain identity
same,EC23 concentration imposing a vMB-identity,hPSC-derived NSCs; FIG. 9c titration,10 nM
same,duration of EC23 treatment required to induce LMX1A+/NKX2.1− vMB cells,hPSC-derived NSCs; reduced EC23 concentration,24 h
same,reduction in concentration required for EC23 to induce LMX1A+/NKX2.1− vMB cells,"hPSC-derived NSCs; titration, relative to 200 nM, treatment for 24 hours",20 fold
CCC(CC)C(c1ccc(Nc2nc3ccccc3s2)cc1)n1cncn1 (stereo not shown) [R115866],identity of cells after inhibiting CYP26 activity,"hPSC-derived NSCs; 100 nM R115866, RA+SAG cultures",mix of LMX1A^+/NKX2.1^− vMB cells and PHOX2B^+ HB cells
same,identity of cells after inhibiting CYP26 activity,"hPSC-derived NSCs; 500 nM R115866 between 0-3 DDC, RA^1D+SAG or RA^2D+SAG cultures",PHOX2B^+ HB-identity
same,identity of cells after inhibiting CYP26 activity,hPSC-derived NSCs; R115866 and SAG only (no RA),did not suppress NKX2.1^+ FB-fate
CNC1CCC(N(Cc2cccc(-c3ccncc3)c2)C(=O)c2sc3ccccc3c2Cl)CC1 (stereo not shown) [SAG],SAG concentration for effective induction of vMB NSC identity,"hPSC-derived NSCs; dSMADi, SAG from day 0, 9 DDC",50 nM
CC1(C)CCSc2ccc(C#Cc3ccc(C(=O)O)cn3)cc21 [tazarotenic acid],identity imposed by RA analogue with inhibition of CYP26 activity,hPSC-derived NSCs,shift into a PHOX2B^+ HB identity
same,identity imposed by RA analogue,hPSC-derived NSCs,LMX1A^+/NKX2.1^− vMB identity; also recorded: LMX1A+/NKX2.1− vMB identity
same,susceptibility to CYP26-mediated oxidation,CYP26,substrates for CYP26-mediated oxidation
